In US11661426B2, “Imidazole-containing inhibitors of ALK2 kinase” (BioCryst Pharmaceuticals, Inc., priority 2017, dated 2023):

Biological target: ALK2 (Homo sapiens (Human), UniProt Q04771)
Test: ALK2 inhibition, LanthaScreen Eu Kinase Binding Assay (ThermoFisher Scientific / Life Technologies)
Settings: read-out: Measured Ki (IC50) Value for Compounds: IC50
Description: Biochemical assays to measure the inhibitory effects of the compounds were performed by ThermoFisher Scientific (Life Technologies). ALK2 inhibition was tested using LanthaScreen™ Eu Kinase Binding Assay screening protocol.

ALK2, sequence (Q04771 21-509): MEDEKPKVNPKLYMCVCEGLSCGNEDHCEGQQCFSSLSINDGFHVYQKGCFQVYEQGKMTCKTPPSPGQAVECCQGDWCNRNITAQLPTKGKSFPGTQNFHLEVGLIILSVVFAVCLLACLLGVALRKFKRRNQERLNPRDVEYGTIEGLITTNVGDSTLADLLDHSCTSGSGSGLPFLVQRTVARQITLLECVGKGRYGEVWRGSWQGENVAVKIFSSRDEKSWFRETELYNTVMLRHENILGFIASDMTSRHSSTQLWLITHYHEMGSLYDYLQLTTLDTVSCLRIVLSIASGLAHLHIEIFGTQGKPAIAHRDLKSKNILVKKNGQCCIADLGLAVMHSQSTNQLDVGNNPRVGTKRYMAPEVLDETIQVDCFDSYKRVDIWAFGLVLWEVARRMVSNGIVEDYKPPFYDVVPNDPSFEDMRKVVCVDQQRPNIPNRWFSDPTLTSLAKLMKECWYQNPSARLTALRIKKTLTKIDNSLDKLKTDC

| Structure (SMILES) | IC50 |
| --- | --- |
| COc1cc(-n2cnc(Nc3nc4c(c(N5CCC[C@H]5CO)n3)CCNC4)c2)cc(OC)c1OC [Compound 182d, (S)-(1-(2-((1-(3,4,5-trimethoxyphenyl)-1H-imidazol-4-yl)amino)-5,6,7,8-tetrahydropyrido[3,4-d]pyrimidin-4-yl)pyrrolidin-2-yl)methanol] | < 100 nM |
| COc1cc(-n2cnc(Nc3nc(N4CCC[C@H]4CO)nc4c3CCN(C(=O)OC(C)(C)C)C4)c2)cc(OC)c1OC [Compound 183b, (S)-tert-butyl 2-(2-(hydroxymethyl)pyrrolidin-1-yl)-4-((1-(3,4,5-trimethoxyphenyl)-1H-imidazol-4-yl)amino)-5,6-dihydropyrido[3,4-d]pyrimidine-7(8H)-carboxylate] | < 100 nM |
| COc1cc(-n2cnc(Nc3nc(N4CCC[C@H]4CO)nc4c3CCNC4)c2)cc(OC)c1OC [Compound 183c, (S)-(1-(4-((1-(3,4,5-trimethoxyphenyl)-1H-imidazol-4-yl)amino)-5,6,7,8-tetrahydropyrido[3,4-d]pyrimidin-2-yl)pyrrolidin-2-yl)methanol] | < 100 nM |
| COc1cc(-n2cnc(Nc3nc(N4CCCC4)nc4c3CCN(C(=O)OC(C)(C)C)C4)c2)cc(OC)c1OC [Compound 184a, tert-butyl 2-(pyrrolidin-1-yl)-4-((1-(3,4,5-trimethoxyphenyl)-1H-imidazol-4-yl)amino)-5,6-dihydropyrido[3,4-d]pyrimidine-7(8H)-carboxylate] | < 100 nM |
| COc1cc(-n2cnc(Nc3nc(N4CCCC4)nc4c3CCNC4)c2)cc(OC)c1OC [Compound 184b, 2-(pyrrolidin-1-yl)-N-(1-(3,4,5-trimethoxyphenyl)-1H-imidazol-4-yl)-5,6,7,8-tetrahydropyrido[3,4-d]pyrimidin-4-amine] | < 100 nM |
| COc1cc(-n2cnc(Nc3nc(N4CCC[C@H]4C(N)=O)nc4c3CCN(C(=O)OC(C)(C)C)C4)c2)cc(OC)c1OC [Compound 185a, (S)-tert-butyl 2-(2-carbamoylpyrrolidin-1-yl)-4-((1-(3,4,5-trimethoxyphenyl)-1H-imidazol-4-yl)amino)-5,6-dihydropyrido[3,4-d]pyrimidine-7(8H)-carboxylate] | < 100 nM |
| COc1cc(-n2cnc(Nc3nc(N4CCC[C@H]4C(N)=O)nc4c3CCNC4)c2)cc(OC)c1OC [Compound 185b, (S)-1-(4-((1-(3,4,5-trimethoxyphenyl)-1H-imidazol-4-yl)amino)-5,6,7,8-tetrahydropyrido[3,4-d]pyrimidin-2-yl)pyrrolidine-2-carboxamide] | < 100 nM |
| COc1cc(-n2cnc(Nc3nc(N4CCCC4)nc4ncccc34)c2)cc(OC)c1OC [Compound 186a, 2-(pyrrolidin-1-yl)-N-(1-(3,4,5-trimethoxyphenyl)-1H-imidazol-4-yl)pyrido[2,3-d]pyrimidin-4-amine] | < 100 nM |
| COc1cc(-n2cnc(Nc3ncnn4cccc34)c2)cc(OC)c1OC [Compound 187b, N-(1-(3,4,5-trimethoxyphenyl)-1H-imidazol-4-yl)pyrrolo[2,1-f][1,2,4]triazin-4-amine] | < 100 nM |
| COc1cc(-n2cnc(Nc3nc(N4CCCC4)nc4cccnc34)c2)cc(OC)c1OC [Compound 188a, 2-(pyrrolidin-1-yl)-N-(1-(3,4,5-trimethoxyphenyl)-1H-imidazol-4-yl)pyrido[3,2-d]pyrimidin-4-amine] | < 100 nM |
| COc1cc(-n2cnc(Nc3nc(N4CCC[C@H]4C(N)=O)nc4ccsc34)c2)cc(OC)c1OC [Compound 189a, (S)-1-(4-((1-(3,4,5-trimethoxyphenyl)-1H-imidazol-4-yl)amino)thieno[3,2-d]pyrimidin-2-yl)pyrrolidine-2-carboxamide] | < 100 nM |
| COc1cc(-n2cnc(Nc3nc(N4CCC[C@H]4C(N)=O)nc4ccoc34)c2)cc(OC)c1OC [Compound 190a, (S)-1-(4-((1-(3,4,5-trimethoxyphenyl)-1H-imidazol-4-yl)amino)furo[3,2-d]pyrimidin-2-yl)pyrrolidine-2-carboxamide] | < 100 nM |
| COc1cc(-n2cnc(Nc3nc(N4CCC[C@H]4C(N)=O)c4c(ccn4S(=O)(=O)c4ccc(C)cc4)n3)c2)cc(OC)c1OC [Compound 191b, (S)-1-(5-tosyl-2-((1-(3,4,5-trimethoxyphenyl)-1H-imidazol-4-yl)amino)-5H-pyrrolo[3,2-d]pyrimidin-4-yl)pyrrolidine-2-carboxamide] | < 100 nM |
| COc1cc(-n2cnc(Nc3nc(N4CCC[C@H]4C(N)=O)c4[nH]ccc4n3)c2)cc(OC)c1OC [Compound 191c, (S)-1-(2-((1-(3,4,5-trimethoxyphenyl)-1H-imidazol-4-yl)amino)-5H-pyrrolo[3,2-d]pyrimidin-4-yl)pyrrolidine-2-carboxamide] | < 100 nM |
| COc1cc(-n2cnc(Nc3nc(N4CCCC4)c4cccnc4n3)c2)cc(OC)c1OC [Compound 192b, 4-(pyrrolidin-1-yl)-N-(1-(3,4,5-trimethoxyphenyl)-1H-imidazol-4-yl)pyrido[2,3-d]pyrimidin-2-amine] | < 100 nM |
| COc1cc(-n2cnc(Nc3nc4c(c(N5CCC[C@H]5C(N)=O)n3)CNCC4)c2)cc(OC)c1OC [Compound 193c, (S)-1-(2-((1-(3,4,5-trimethoxyphenyl)-1H-imidazol-4-yl)amino)-5,6,7,8-tetrahydropyrido[4,3-d]pyrimidin-4-yl)pyrrolidine-2-carboxamide] | < 100 nM |

| Structure (SMILES) | IC50 |
| --- | --- |
| COc1cc(-n2cnc(Nc3nc4c(c(N5CCC[C@H]5C(N)=O)n3)CCNC4)c2)cc(OC)c1OC [Compound 194c, (S)-1-(2-((1-(3,4,5-trimethoxyphenyl)-1H-imidazol-4-yl)amino)-5,6,7,8-tetrahydropyrido[3,4-d]pyrimidin-4-yl)pyrrolidine-2-carboxamide] | < 100 nM |
| COc1cc(-n2cnc(Nc3cc4ccccc4cn3)c2)cc(OC)c1OC [Compound 195b, N-(1-(3,4,5-trimethoxyphenyl)-1H-imidazol-4-yl)isoquinolin-3-amine] | < 100 nM |
| COc1cc(-n2cnc(Nc3nc(N4CCC[C@H]4C(N)=O)c4ncsc4n3)c2)cc(OC)c1OC [Compound 196b, (S)-1-(5-((1-(3,4,5-trimethoxyphenyl)-1H-imidazol-4-yl)amino)thiazolo[5,4-d]pyrimidin-7-yl)pyrrolidine-2-carboxamide] | < 100 nM |
| COc1cc(-n2cnc(Nc3nc(N4CCCC4)nc4scnc34)c2)cc(OC)c1OC [Compound 197a, 5-(pyrrolidin-1-yl)-N-(1-(3,4,5-trimethoxyphenyl)-1H-imidazol-4-yl)thiazolo[5,4-d]pyrimidin-7-amine] | < 100 nM |
| COc1cc(-n2cnc(Nc3ncc4ccccc4n3)c2)cc(OC)c1OC [Compound 198b, N-(1-(3,4,5-trimethoxyphenyl)-1H-imidazol-4-yl)quinazolin-2-amine] | 100 to 1000 nM |
| COc1cc(-n2cnc(Nc3nc(N4CCCC4)c4c(ccn4S(=O)(=O)c4ccc(C)cc4)n3)c2)cc(OC)c1OC [Compound 199b, 4-(pyrrolidin-1-yl)-5-tosyl-N-(1-(3,4,5-trimethoxyphenyl)-1H-imidazol-4-yl)-5H-pyrrolo[3,2-d]pyrimidin-2-amine] | > 1000 nM |
| COc1cc(-n2cnc(Nc3nc(N4CCC[C@H]4CO)c4cccc(OC(C)C)c4n3)c2)cc(OC)c1OC [Compound 200b, (S)-(1-(8-isopropoxy-2-((1-(3,4,5-trimethoxyphenyl)-1H-imidazol-4-yl)amino)quinazolin-4-yl)pyrrolidin-2-yl)methanol] | < 100 nM |
| COc1cc(-n2cnc(Nc3ncc4c(n3)CCN(Cc3ccccc3)C4)c2)cc(OC)c1OC [Compound 201b, 6-benzyl-N-(1-(3,4,5-trimethoxyphenyl)-1H-imidazol-4-yl)-5,6,7,8-tetrahydropyrido[4,3-d]pyrimidin-2-amine] | < 100 nM |
| COc1cc(-n2cnc(Nc3ncc4c(n3)CN(Cc3ccccc3)CC4)c2)cc(OC)c1OC [Compound 202b, 7-benzyl-N-(1-(3,4,5-trimethoxyphenyl)-1H-imidazol-4-yl)-5,6,7,8-tetrahydropyrido[3,4-d]pyrimidin-2-amine] | < 100 nM |
| COc1cc(-n2cnc(Nc3nc(N4CCC[C@H]4C(N)=O)c4cccnc4n3)c2)cc(OC)c1OC [Compound 203b, (S)-1-(2-((1-(3,4,5-trimethoxyphenyl)-1H-imidazol-4-yl)amino)pyrido[2,3-d]pyrimidin-4-yl)pyrrolidine-2-carboxamide] | 100 to 1000 nM |
| COc1cc(-n2cnc(Nc3nc(N4CCC[C@H]4C(N)=O)c4ccccc4n3)c2)cc(OC)c1OC [Compound 204b, (S)-1-(2-((1-(3,4,5-trimethoxyphenyl)-1H-imidazol-4-yl)amino)quinazolin-4-yl)pyrrolidine-2-carboxamide] | 100 to 1000 nM |
| COc1cc(-n2cnc(Nc3nc(N4CCC[C@H]4C(N)=O)c4cccc(OC(C)C)c4n3)c2)cc(OC)c1OC [Compound 205b, (S)-1-(8-isopropoxy-2-((1-(3,4,5-trimethoxyphenyl)-1H-imidazol-4-yl)amino)quinazolin-4-yl)pyrrolidine-2-carboxamide] | 100 to 1000 nM |
| COc1cc(-n2cnc(Nc3nc(N4CCC[C@H]4C(F)(F)F)c4cccn4n3)c2)cc(OC)c1OC [Compound 206b, (S)-4-(2-(trifluoromethyl)pyrrolidin-1-yl)-N-(1-(3,4,5-trimethoxyphenyl)-1H-imidazol-4-yl)pyrrolo[2,1-f][1,2,4]triazin-2-amine] | < 100 nM |
| COc1cc(-n2cnc(Nc3nc(N4CCCC4)c4sccc4n3)c2)cc(OC)c1OC [Compound 207b, 4-(pyrrolidin-1-yl)-N-(1-(3,4,5-trimethoxyphenyl)-1H-imidazol-4-yl)thieno[3,2-d]pyrimidin-2-amine] | < 100 nM |
| COc1cc(-n2cnc(Nc3ccc4ccc(Nc5cn(-c6cc(OC)c(OC)c(OC)c6)cn5)cc4c3)c2)cc(OC)c1OC [Compound 208b, N^2,N^7-bis(1-(3,4,5-trimethoxyphenyl)-1H-imidazol-4-yl)naphthalene-2,7-diamine] | < 100 nM |
| COc1cc(-n2cnc(Nc3nc(N4CC[C@@H](O)C4)c4cccn4n3)c2)cc(OC)c1OC [Compound 209b, (R)-1-(2-((1-(3,4,5-trimethoxyphenyl)-1H-imidazol-4-yl)amino)pyrrolo[2,1-f][1,2,4]triazin-4-yl)pyrrolidin-3-ol] | < 100 nM |
